The values below come from BindingDB's records for patent US10071965 (The State University of New York, 2018).

Structures are written as SMILES.

For this assay, the target named is T1, Enoyl-[acyl-carrier-protein] reductase [NADPH] FabI (Staphylococcus aureus (strain MRSA252), UniProt Q6GI75).
T1 sequence (Q6GI75 whole entry): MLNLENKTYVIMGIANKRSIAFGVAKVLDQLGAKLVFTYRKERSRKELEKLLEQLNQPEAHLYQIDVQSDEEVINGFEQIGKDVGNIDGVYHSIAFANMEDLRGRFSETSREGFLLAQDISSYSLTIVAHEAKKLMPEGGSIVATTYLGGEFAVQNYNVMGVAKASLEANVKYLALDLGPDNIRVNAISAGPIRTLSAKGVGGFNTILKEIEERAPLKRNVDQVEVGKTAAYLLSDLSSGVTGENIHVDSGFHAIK
Nature of the assay: Tight-binding assay. As to conditions: pH 7.5.

As to `Cc1ccc(Oc2ccccc2)c(O)c1` [US10071965, Compound PT53], the Ki (usually a dissociation constant, usually derived from enzyme kinetics or from competition with a known ligand) is 494 nM.
